10 compounds from patent publication US7582611B2, “Motilide compounds” (Pfizer Inc., priority 2005, dated 2009) can be followed below.

In brackets after ≈: the same amount, converted by molar mass.

For one experiment, the target named is T1, Motilin Receptor (Oryctolagus cuniculus, UniProt G1T803).
T1 construct: strips of longitudinal smooth muscle were sliced from the segments; from tissue; host or cells: rabbit duodenum longitudinal smooth muscle strips
Put plainly: Tissue based assay for motilin agonist potency (rabbit duodenum contractility). Format: cell-based. The settings on record: rabbit duodenum strips, contraction normalized to 1 μM carbachol; read-out: Motilin Receptor Agonist Activity (EC50). The procedure: The motilin agonist potencies of compounds of this invention were evaluated using a tissue based assay, using rabbit duodenum tissue-based contractility assay, generally following the procedure of Depoortere et al., J. Gastrointestinal Motility, 1, 150-159 (1989), the disclosure of which is incorporated herein by reference. Briefly, this method measures the ability of a compound to induce contractions in rabbit duodenal tissue, a motilin receptor-bearing tissue contractilely responsive to motilin.
Strips of rabbit duodenum were tested and qualified for use in the assay by as follows. Segments of rabbit duodenum, 20-30 cm distal to the pylorus were split longitudinally. The mucosa was removed and 2×2×15 mm strips of longitudinal smooth muscle were sliced from the segments. The strips were bathed in oxygenated Krebs solution at 37° C., with 1.5 g of tension, and contractions measured auxotonically.
The carbachol was then washed away by changing the organ bath buffer twice. The strips were washed again 20±5 minutes following the carbachol contraction. Following this last wash a dose response study was initiated within 10±5 min. Each compound tested was dissolved in dimethylsulfoxide (DMSO) to a final concentration of 10 mM. A series of seven 10× serial dilutions in water was prepared, so that the concentration of the seventh serial dilution was 1.0×10^−6 mM. The first through fifth serial dilutions of the compound were applied, starting with 200 μL of the most dilute solution. After each application, there was a wait of 2±0.5 min, until the response was stable, before the application of the next dose (the next higher concentration serial dilution). The dose was increased in 10-fold increments until a small response was observed. Subsequent doses were the increased in 2- to 5-fold increments, until the maximum response was obtained. At 2±0.5 min after the last drug addition, the strips were dosed with 1 μM carbachol.
The EC50 (concentration producing a half-maximal effect) was calculated as follows. The basal tension was subtracted from the compound-induced tension for each reading. The data points were normalized against the response obtained from 1 μM carbachol at the end of the experiment. The concentration of compound was plotted against the response and fitted to the following equation: R=(Rmax·C)/(EC50+C) where R is the contraction response, Rmax is the maximal contraction response, and C is the concentration of compound. Both R and Rmax are expressed as a fraction of the 1 μM carbachol contraction and range from 0 to 1.

In experiment [1] the test system is Streptococcus pneumoniae ATCC 6301. The experiment in a line: Evaluation of antibacterial activity (MIC, serial dilutions on 96-well microtiter plates). Format: cell-based. As to conditions: ATCC6301, read-out: Antibacterial Activity (MIC, μg/mL).

T1 sequence (G1T803 1-400): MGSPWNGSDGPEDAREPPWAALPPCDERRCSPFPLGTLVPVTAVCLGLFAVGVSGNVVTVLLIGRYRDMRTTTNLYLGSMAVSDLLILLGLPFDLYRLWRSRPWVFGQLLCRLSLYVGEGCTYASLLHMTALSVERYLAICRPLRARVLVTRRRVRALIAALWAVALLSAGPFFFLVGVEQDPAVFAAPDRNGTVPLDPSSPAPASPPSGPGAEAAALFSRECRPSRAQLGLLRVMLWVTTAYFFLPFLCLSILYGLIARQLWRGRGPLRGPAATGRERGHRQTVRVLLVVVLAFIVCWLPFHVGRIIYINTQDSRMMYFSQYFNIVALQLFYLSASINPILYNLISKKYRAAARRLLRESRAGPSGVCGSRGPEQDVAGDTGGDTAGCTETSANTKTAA

A word on the EC50: it is the concentration that produces a half-maximal response. In the case of `CC[C@H]1OC(=O)[C@H](C)[C@@H](O[C@H]2C[C@@](C)(OC)[C@@H](O)[C@H](C)O2)[C@H](C)[C@@H](O[C@@H]2O[C@H](C)C[C@H](N(C)C(C)C)[C@H]2O)[C@](C)(O)C[C@@H](C)[C@H](OCC(=O)NCCN2CCOCC2)[C@H](C)[C@@H](O)[C@]1(C)O` [Compound A-48], at Motilin Receptor, the EC50 came to 140 nM. Besides, the MIC in experiment [1] turned out to be 64 µg/mL (≈ 68.5 µM).
Taken in the same sequence, the figures for `CC[C@H]1OC(=O)[C@H](C)[C@@H](O[C@H]2C[C@@](C)(OC)[C@@H](O)[C@H](C)O2)[C@H](C)[C@@H](O[C@@H]2O[C@H](C)C[C@H](N(C)C(C)C)[C@H]2O)[C@](C)(O)C[C@@H](C)[C@H](OC(N)=O)[C@H](C)[C@@H](O)[C@]1(C)O` [Compound A-17] were 650 nM and 64 µg/mL (≈ 79.3 µM).
For the compound `CC[C@H]1OC(=O)[C@H](C)[C@@H](O[C@H]2C[C@@](C)(OC)[C@@H](O)[C@H](C)O2)[C@H](C)[C@@H](O[C@@H]2O[C@H](C)C[C@H](N(C)CCO)[C@H]2O)[C@](C)(O)C[C@@H](C)[C@H](NS(C)(=O)=O)[C@H](C)[C@@H](O)[C@]1(C)O` [Compound A-36], on Motilin Receptor, the EC50 was 66 nM. Besides, the MIC in experiment [1] turned out to be 32 µg/mL (≈ 38 µM).
As to `CC[C@H]1OC(=O)[C@H](C)[C@@H](O[C@H]2C[C@@](C)(OC)[C@@H](O)[C@H](C)O2)[C@H](C)[C@@H](O[C@@H]2O[C@H](C)C[C@H](N(C)C(C)C)[C@H]2O)[C@](C)(O)C[C@@H](C)[C@H](OC(=O)N(C)C)[C@H](C)[C@@H](O)[C@H]1C` [Compound A-75], the EC50 at Motilin Receptor is 290 nM. The MIC in experiment [1] was above 128 µg/mL.
Taken in the same sequence, the figures for `CC[C@H]1OC(=O)[C@H](C)[C@@H](O[C@H]2C[C@@](C)(OC)[C@@H](O)[C@H](C)O2)[C@H](C)[C@@H](O[C@@H]2O[C@H](C)C[C@H](N(C)C(C)C)[C@H]2O)[C@](C)(O)C[C@@H](C)[C@H](OC(=O)N(C)C)[C@H](C)[C@@H](O)[C@]1(C)O` [Compound A-18] were 310 nM and 128 µg/mL (≈ 153 µM).
`CC[C@H]1OC(=O)[C@H](C)[C@@H](O[C@H]2C[C@@](C)(OC)[C@@H](O)[C@H](C)O2)[C@H](C)[C@@H](O[C@@H]2O[C@H](C)C[C@H](N(C)CC(C)C)[C@H]2O)[C@](C)(O)C[C@@H](C)[C@H](NS(C)(=O)=O)[C@H](C)[C@@H](O)[C@]1(C)O` [Compound A-38]: at Motilin Receptor, the EC50 is 140 nM. Moreover, the MIC in experiment [1] was 128 µg/mL (≈ 150 µM).
Taken in the same sequence, the figures for `CC[C@H]1OC(=O)[C@H](C)[C@@H](O[C@H]2C[C@@](C)(OC)[C@@H](O)[C@H](C)O2)[C@H](C)[C@@H](O[C@@H]2O[C@H](C)C[C@H](N(C)CC(C)(C)O)[C@H]2O)[C@](C)(O)C[C@@H](C)[C@H](NS(C)(=O)=O)[C@H](C)[C@@H](O)[C@]1(C)O` [Compound A-37] were 52 nM and 64 µg/mL (≈ 73.5 µM).
Consider `CC[C@H]1OC(=O)[C@H](C)[C@@H](O[C@H]2C[C@@](C)(OC)[C@@H](O)[C@H](C)O2)[C@H](C)[C@@H](O[C@@H]2O[C@H](C)C[C@H](N(C)C(C)C)[C@H]2O)[C@](C)(O)C[C@@H](C)[C@H](OCc2ncc[nH]2)[C@H](C)[C@@H](O)[C@]1(C)O` [Compound A-62], for which the EC50 on Motilin Receptor turned out to be 63 nM. The MIC in experiment [1] was found to be 128 µg/mL (≈ 152 µM).
On to `CC[C@H]1OC(=O)[C@H](C)[C@@H](O[C@H]2C[C@@](C)(OC)[C@@H](O)[C@H](C)O2)[C@H](C)[C@@H](O[C@@H]2O[C@H](C)C[C@H](N(C)C(C)C)[C@H]2O)[C@@]2(C)CC(C)=C(O2)[C@H](C)C(=O)[C@]1(C)OC` [GM-611, reference compound], for which, on Motilin Receptor, the EC50 turned out to be 11 nM. Besides, the MIC in experiment [1] came out at 128 µg/mL (≈ 169 µM).
Taken in the same sequence, the figures for `CC[C@H]1OC(=O)[C@H](C)[C@@H](O[C@H]2C[C@@](C)(OC)[C@@H](O)[C@H](C)O2)[C@H](C)[C@@H](O[C@@H]2O[C@H](C)C[C@H](N(C)C[C@H](C)O)[C@H]2O)[C@](C)(O)C[C@@H](C)[C@H](OS(=O)(=O)N(C)C)[C@H](C)[C@@H](O)[C@]1(C)O` [Compound A-20] were 490 nM and 128 µg/mL (≈ 144 µM).
